For eleven compounds, Ki results are on record in BindingDB's records for doi:10.1124/jpet.301.2.527 (Mercer University, 2002).

In experiment [1] the target is Sodium-dependent dopamine transporter (Rattus norvegicus, UniProt P23977).
Experiment [2] concerns the target Sodium-dependent serotonin transporter (Rattus norvegicus, UniProt P31652).

pKi: −log10 of the molar value. A value given as a limit tells only on which side of the number the result lay.

Sequence of Sodium-dependent dopamine transporter (P23977 whole entry): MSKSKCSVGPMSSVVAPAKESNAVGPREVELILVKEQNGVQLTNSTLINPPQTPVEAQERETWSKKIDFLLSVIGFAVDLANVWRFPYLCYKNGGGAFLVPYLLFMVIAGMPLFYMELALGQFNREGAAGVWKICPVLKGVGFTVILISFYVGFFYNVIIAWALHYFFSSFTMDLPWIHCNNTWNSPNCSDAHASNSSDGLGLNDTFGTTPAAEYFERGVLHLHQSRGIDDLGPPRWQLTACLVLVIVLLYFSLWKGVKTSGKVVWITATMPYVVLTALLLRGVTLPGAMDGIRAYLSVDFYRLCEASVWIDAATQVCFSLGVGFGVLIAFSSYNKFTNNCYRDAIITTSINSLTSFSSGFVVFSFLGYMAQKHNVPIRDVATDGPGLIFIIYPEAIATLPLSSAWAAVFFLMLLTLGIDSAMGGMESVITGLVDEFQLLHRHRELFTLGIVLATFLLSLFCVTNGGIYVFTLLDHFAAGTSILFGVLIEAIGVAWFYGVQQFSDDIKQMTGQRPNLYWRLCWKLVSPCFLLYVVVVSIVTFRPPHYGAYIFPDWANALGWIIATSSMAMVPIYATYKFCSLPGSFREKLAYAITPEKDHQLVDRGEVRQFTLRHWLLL
Sequence of Sodium-dependent serotonin transporter (P31652 whole entry): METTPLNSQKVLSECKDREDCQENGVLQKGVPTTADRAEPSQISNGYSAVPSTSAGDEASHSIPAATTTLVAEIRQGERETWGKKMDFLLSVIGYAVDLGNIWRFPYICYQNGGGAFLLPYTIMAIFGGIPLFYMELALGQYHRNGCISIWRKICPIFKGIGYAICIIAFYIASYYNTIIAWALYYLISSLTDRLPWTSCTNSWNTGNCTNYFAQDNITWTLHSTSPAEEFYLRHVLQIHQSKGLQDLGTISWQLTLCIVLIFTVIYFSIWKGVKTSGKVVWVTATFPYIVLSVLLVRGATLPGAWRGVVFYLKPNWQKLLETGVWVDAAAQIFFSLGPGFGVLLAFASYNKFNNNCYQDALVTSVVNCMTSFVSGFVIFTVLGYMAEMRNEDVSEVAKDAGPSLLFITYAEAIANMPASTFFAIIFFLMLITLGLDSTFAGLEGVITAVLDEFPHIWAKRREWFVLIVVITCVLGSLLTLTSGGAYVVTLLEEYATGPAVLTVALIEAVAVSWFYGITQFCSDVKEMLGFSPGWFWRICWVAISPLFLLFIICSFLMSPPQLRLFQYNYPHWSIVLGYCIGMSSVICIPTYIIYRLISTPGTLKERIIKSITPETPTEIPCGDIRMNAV

Compound `COC(=O)[C@H](c1ccc(Cl)c(Cl)c1)[C@@H]1CCCCN1` [3,4CTMP] had a pKi in experiment [1] of 8.28.
With `COC(=O)[C@H](c1cccc(Cl)c1)[C@@H]1CCCCN1C` [3CTMPNMe], the pKi was 6.80 in experiment [1] and less than 5.00 in experiment [2].
For `COC(=O)[C@H](c1cccc(Cl)c1)[C@@H]1CCCCN1` [3CTMP], the negative-log Ki (pKi) in experiment [1] is 8.29; in experiment [2] it was less than 5.00.
Taken in the same sequence, the figures for `COC(=O)[C@H](c1ccc(N)cc1)[C@@H]1CCCCN1` [4ATMP] were 7.46 and less than 5.00.
Taken in the same sequence, the figures for `COC(=O)[C@H](c1ccc(F)cc1)[C@@H]1CCCCN1` [4FTMP] were 7.46 and less than 5.00.
Taken in the same sequence, the figures for `COC(=O)[C@H](c1ccc(C)cc1)[C@@H]1CCCCN1C` [4MeTMPNMe] were 6.85 and 5.96.
Turning to `COC(=O)[C@H](c1ccc(C)cc1)[C@@H]1CCCCN1` [4MeTMP], the negative logarithm of the Ki (pKi) in experiment [1] was 7.48; in experiment [2], less than 5.00.
As for `COC(=O)[C@H](c1ccccc1)[C@@H]1CCCCN1C` [TMPNMe], the negative logarithm of the Ki (pKi) in experiment [1] is 6.30; in experiment [2] it was less than 5.00.
As to `COC(=O)[C@H](c1ccccc1)[C@@H]1CCCCN1` [TMP], the pKi in experiment [2] was less than 5.00.
As for `CCCCN1CCCC[C@H]1[C@H](CO)c1ccccc1` [TROHNBn], the negative logarithm of the Ki (pKi) is 7.63 in experiment [1] and 6.69 in experiment [2].
Taken in the same sequence, the figures for `CCCCN1CCCC[C@H]1[C@H](COC)c1ccccc1` [TROMeNBn] were 7.75 and 6.78.

As a reminder, the pKi is the negative decadic logarithm of the Ki, by convention in mol/L. Low readings indicate a large Ki, high ones a small Ki.
